Assay results reported in PubChem BioAssay AID1645848.
≈ marks a conversion by molar mass, not a printed value.

Details: buffer; pH 7.4; 6.0 h; 150.0 µM

Row | Structure (SMILES) | solubility kinetic [µg/mL]
1 | COc1cccc(-c2cn3c(n2)sc2cc(C(=O)NCCc4ccc(OC)c(OC)c4)ccc23)c1 | < 1
2 | Cc1ccnc(NC(=S)N2CC[C@@H](Nc3cccc(C(F)(F)F)c3)C2)c1 | 7.92 (≈ 20.8 µM)
3 | Cc1cnc(-c2ccccc2C(C)C)nc1NCC1CCN(c2cccnc2)C1 (stereo not given) | 7.52 (≈ 19.4 µM)
4 | COc1cccc(CNc2ccc(S(=O)(=O)Nc3ccc(C)nc3)cc2)c1O | 16.5 (≈ 41.2 µM)
5 | COc1c(O)cc2c(c1OC)-c1ccc(SC)c(=O)cc1C(NC(C)=O)CC2 (stereo not given) | > 59
6 | CC[C@H]1CN(C)[C@H]2Cc3c([nH]c4ccccc34)C(=O)C[C@H]1[C@H]2C(=O)OC | > 52
7 | CC(=O)c1c(C)[nH]c(C(=O)Nc2cccc([S+](=O)([O-])N3CC[C@@H](F)C3)c2)c1C | 23.3 (≈ 57.1 µM)
8 | N#Cc1ccccc1S(=O)(=O)Nc1cnccc1C(=O)Nc1nc(-c2ccccc2)cs1 | 50.9 (≈ 110 µM)
9 | Cc1ccc(CNCc2cn[nH]c2-c2ccc(C)cc2)cc1 | 30 (≈ 103 µM)
10 | CC(Nc1nc(N2CCN(S(C)(=O)=O)CC2)nc2ccccc12)c1ccccc1 (stereo not given) | 11 (≈ 26.8 µM)
11 | Cc1ccc(CNc2ccccc2C(=O)Nc2nc(-c3ccccc3)cs2)cc1 | < 1
12 | Cc1c(-c2cccc(NC(=O)c3ccc(F)c(F)c3)c2)nc2ncccn12 | 7.47 (≈ 20.5 µM)
13 | Cc1cc(Br)ccc1NC(=O)C(NS(=O)(=O)c1cccs1)c1ccccc1 (stereo not given) | < 1
14 | COc1ccc(C2(C(=O)N3CCC(n4cc(-c5nc(C)no5)nn4)CC3)CC2)cc1 | > 60
15 | Nc1cc(-c2nc(Nc3ccc(F)c(F)c3)c3ccccc3n2)ccn1 | < 1
16 | COc1ccc(Nc2nc(-c3ccncc3)nc3ccccc23)cc1F | < 1
17 | Cc1cc(F)c(C(=O)Nc2cccc(-c3nncn3C(C)C)n2)cc1-n1cnc(C2CC2)c1 | 49.8 (≈ 112 µM)
18 | CC(C)(O)Cn1c(NC(=O)c2ccc(-c3cn[nH]c3)s2)nc2cc(CN3CCOCC3)ccc21 | 47 (≈ 97.8 µM)
19 | Cc1ccc(Nc2nc(-c3ccncc3)nc3ccccc23)cc1F | < 1
20 | CC(=O)c1c(C)[nH]c(C(=O)Nc2cccc(S(=O)(=O)Nc3ccc(Br)cc3)c2)c1C | < 1
21 | N#Cc1cccc(Nc2ncc(-c3cccc4ccccc34)o2)c1 | < 1
22 | CCCCCN(CCC12CC3CC(CC(C3)C1)C2)C(=O)NCCCc1ccncc1 | < 1
23 | CC1(C)CC2CC(C)(CN2S(=O)(=O)c2ccc(C(=O)Nc3cccc(S(=O)(=O)N4CCOCC4)c3)cc2)C1 (stereo not given) | < 1
24 | O=S(=O)(Nc1nccs1)c1ccc(Nc2nc(-c3ccc(F)cc3)cs2)cc1 | 2.36 (≈ 5.46 µM)
25 | CC(=O)c1c(C)c(C(=O)Nc2cccc([S+](=O)([O-])N3CCCCCC3)c2)n(C)c1C | < 1

Row | Structure (SMILES) | solubility kinetic [µg/mL]
26 | Cc1[nH]c2ccccc2c1CN1CCN(c2ccccn2)CC1 | 34.4 (≈ 112 µM)
27 | CC(Nc1ncnc2c1cnn2-c1cccc(Cl)c1)c1ccccc1 (stereo not given) | < 1
28 | Cc1ccc(C2=CSC(NC(=O)CSc3nncn3C)=NN2)cc1 | > 53
29 | Cc1nnn(C)c1-c1cnc2c3ccc(C(C)(C)O)cc3n([C@H](c3ccccc3)C3CCOCC3)c2c1 | 29.6 (≈ 59.6 µM)
30 | Cc1ccc(S(=O)(=O)Nc2cnccc2C(=O)Nc2nc(C3CCC3)cs2)cc1 | > 63
31 | COc1cc2c(Oc3ccc(-c4cnc(Nc5ccc(F)cc5)n(C)c4=O)cc3F)ccnc2cc1OCCCN1CCOCC1 | < 1
32 | CCOC(=O)N1CCN(Cc2nc3cc(NC(=O)CC(C)C)ccc3n2C(C)C)CC1 | > 63
33 | Cc1ccc(S(=O)(=O)Nc2cnccc2C(=O)NCc2ccccc2)cc1 | > 56
34 | COC(=O)CNC(=O)c1nc(-c2ccc(Cl)nc2)c2cnccn12 | > 61
35 | C=CC(=O)Nc1cccc(Oc2nc(Nc3ccc(N4CCN(C)CC4)cc3)ncc2Cl)c1 | < 1
36 | NC(=O)N1CCCC(C(=O)N2CCCN(c3ccc(F)cc3)CC2)C1 (stereo not given) | > 51
37 | Cc1noc(C)c1Cc1ccc(C(=O)N2CCc3c(nc4cc(-c5ccccc5)[nH]n4c3=O)C2)o1 | 4.77 (≈ 10.2 µM)
38 | Nc1nccc2c1ncn2[C@@H]1C=C(CO)[C@@H](O)[C@H]1O | > 39
39 | Nc1nc2c(s1)C(c1ccccc1)CC(=O)N2 (stereo not given) | 26 (≈ 106 µM)
40 | COC(=O)c1ccc([C@H]2c3[nH]c4ccccc4c3C[C@H](C(=O)OC)N2C(=O)CCl)cc1 | < 1
41 | CN(C(=O)OC(C)(C)C)[C@@H](Cc1ccc(O[S+](=O)([O-])c2cccc3cnccc23)cc1)C(=O)N1CCN(C(=O)OCc2ccccc2)CC1 | < 1
42 | C[C@H]1CN(C(=O)Nc2ccc(F)cc2)C[C@@H]1c1nc(-c2ccccc2)no1 | 4.11 (≈ 11.2 µM)
43 | Clc1ccc(C2(c3ccc(-c4cn[nH]c4)cc3)CCNCC2)cc1 | > 50
44 | FC(F)(F)c1ccc(CN2CCNc3cc(Nc4ccccc4)ncc3C2)cc1 | < 1
45 | COc1ccc(NC(=O)c2c(C)c(C(C)=O)c(C)n2C)cc1S(=O)(=O)Nc1ccc(Br)cc1 | < 1
46 | CC(=O)c1c(C)[nH]c(C(=O)Nc2cccc([S+](=O)([O-])Nc3ccccc3)c2)c1C | 2.16 (≈ 5.24 µM)
47 | Cn1nnnc1SCCCNCc1cccc(OCc2ccccc2Cl)c1 | > 60
48 | Cc1ccnc(NC(=O)C2CC(=O)N(c3n[nH]c4cc(Br)ccc34)C2)c1 (stereo not given) | < 1
49 | COc1cc(Cl)cn2c(-c3cccc(NC4CNC4)n3)cnc12 | > 49
50 | Nc1ccc(-c2cccc3c(=O)cc(N4CCOCC4)oc23)cc1 | > 48
